From US5389621A, “Method of enhancing the anticoagulant effects of aspirin using salicylamide” (University of Medicine and Dentistry of New Jersey, priority 1994, dated 1995)
Values belong to the compound of their own block, whether it stands above or below them.

Key:
Type in all cases: in vivo, male Sprague-Dawley rats
[1] = Tightly protein-bound 14C radioactivity after 14C-salicylamide; details: for Effect on tightly protein-bound 14C in lung: 14C-SAM with ASA; for Tightly protein-bound 14C in heart / Tightly protein-bound 14C in kidney / Tightly protein-bound 14C in liver / Tightly protein-bound 14C in lung / Tightly protein-bound 14C in plasma: 1.5 hr
Protocol: Forty-eight rats were divided into two groups.
The rats were anesthetized by light diethyl ether inhalation.
The plasma tightly protein-bound activity was measured by adding 100 μl of 10% trichloroacetic acid (TCA) to 100 μl of plasma in microcentrifuge tubes and vortexing the contents for 1 minute followed by centrifugation at 1800×g for 10 minutes. The supernatant was decanted and the tubes with the pellets in them were placed in scintillation vials each containing 15 ml of Aquasol-2 scintillation fluid. […] The radioactivity in the scintillation vials was counted in Beckman LS counter.
In the case of plasma analysis, 100 μl samples were used and the remainder of the procedure was the same as described above. The pellets were not dissolved but instead directly poured in a tube containing 15 ml of the scintillation fluid and the radioactivity was measured in the Beckman LS counter.

vascular cyclooxygenase = assay: 6-keto PG F1alpha production from thoracic aortic rings ex vivo; details: for Inhibition of PG I2 (6-keto PG F1alpha) / vascular cyclooxygenase: ASA 10 mg/kg or SAM 9 mg/kg, rat thoracic aortic rings ex vivo
Protocol: The method used was a modification of that used by Dejana et al. (1981). Male Sprague-Dawley rats were randomly treated with either ASA (10 mg/kg), SAM (9 mg/kg), ASA/SAM (10/9 mg/kg), or isotonic saline. The rats were fasted overnight before administration of the treatments. Half an hour following treatment, the rats were exsanguinated by heart puncture under ether anesthesia and the thoracic aorta was immediately isolated, cleaned of adventitia, and flushed in situ with 5 ml of isotonic saline. The vessel was then removed and 2 rings (each was nearly 7 mg wet weight corresponding to 0.5 cm length) were cut from the middle part. The rings were immediately incubated in 160 μl of Krebs-Hanseleit buffer solution adjusted to pH 7.4 and containing AA (final concentration 4.3 mM) in polyethylene tubes. The tubes were incubated at 37° C. in a shaking water bath for 10 minutes. The reaction was terminated by the addition of 40 μl of EDTA/ASA solution and the tubes were centrifuged at 1800× g for 15 minutes at 4° C. 100 μl of the supernatant were used for the measurement of 6-keto PG F1alpha content as an indicator of its unstable precursor, PG I2. A specific radioimmunoassay (Amersham International) (vide infra) was employed.
Radioimmunoassay Procedure for Measurement of Thromboxane B2 and 6-keto PG F1alpha
The procedure described below is for thromboxane A2. A similar procedure was used for 6-keto PG F1alpha measurement.
One way ANOVA followed by Scheffe multiple range test was employed for treatment comparisons. The accepted level of significance was p<0.05.

[2] = Tissue distribution of 14C radioactivity after 14C-aspirin; details: for Tissue with the highest 14C concentration: 14C-ASA alone or with SAM, low dose
Protocol: Male adult Sprague-Dawley rats (300-325 gm) obtained from Charles River Breeding Laboratory, N. Wilmington, Mass. were quarantined for one week. All animals were identified by ear punching. Food and water were provided ad libitum. The animals were maintained on rodent lab chow diet in a controlled environment with 50% humidity and 12 hour light/dark cycle.
Forty-eight rats were divided into two groups. The first group of rats was administered ASA, SAM or their combination in a dose approximately equal (w/w) to that in the commercially available combinations, e.g., BC® formula, when administered to humans, i.e., 10 and 3 mg/kg of ASA and SAM, respectively. The second group was administered double the dosage received by the first group.
Each group consisted of 24 rats and was further divided into 4 subgroups, 6 rats each, according to the following scheme:
The rats were fasted overnight. The drug(s) were prepared fresh, dissolved in 2.5 ml of deionized water and administered orally by gavage needle. The rats were allowed water ad libitum before and after the oral administration.
The different treatments were given according to the previous scheme and each rat received an amount of radioactivity equal to […] in the case of radioactive aspirin and 10 μCu in the case of radioactive salicylamide.
The rats were anesthetized by light diethyl ether inhalation. A blood sample of nearly 3 ml was collected by cardiac puncture 1.5 hours after oral administration. The blood was transferred to chilled polyethylene tubes containing 30 μl of 50% (w/w) potassium fluoride to prevent hydrolysis of ASA. A 300 μl aliquot was pipetted in a scintillation vial to study the distribution in whole blood. The rest of the collected blood was immediately centrifuged at 1800×g for 10 minutes at 4° C. and the plasma was decanted. 100 μl of the plasma were pipetted in a scintillation vial for measurement of the total radioactivity and the rest of the plasma was stored immediately at -70° C. for later study of the distribution of the metabolites.
300 μl of the pellet of red blood cells was pipetted in a scintillation vial to study the distribution in red blood cells. The rest of the red blood cells were washed twice by adding 2 ml of physiological saline and were resuspended after each addition.
After collecting the blood sample, the rats were sacrificed immediately by a diethyl ether overdose. The following tissues were collected: liver, lung, kidney, heart, spleen, perinephric fat, brain, upper small intestine, stomach, pancreas, bone (femur and tibia), testis, skin and skeletal muscle. A sample of bone marrow was also collected (approximately20 mg).
300 mg tissue samples were placed in scintillation vials and 300 μl of 70% perchloric acid and 600 μl of 30% hydrogen peroxide were added to each vial and also to the vials containing the washed red blood cells aliquots. The vials were incubated at 75° C. for 1 hour in a shaking water bath and were tightly capped to prevent any loss of radioactivity by evaporation.
The vials were left to cool to room temperature for 15 minutes before 10 ml Aquasol-2 scintillation fluid was added to each vial. The total radioactivity was counted in a Beckman model 7500 LS spectrophotometer.

[3] = 1.5 hr, 14C-ASA 10 mg/kg, alone or with SAM 3 mg/kg
[4] = 1.5 hr, 14C-ASA 20 mg/kg, alone or with SAM 6 mg/kg
[5] = oral 14C-SAM 3 mg/kg, alone or with ASA 10 mg/kg
[6] = oral 14C-SAM 6 mg/kg, alone or with ASA 20 mg/kg

SMILES: CC(=O)Oc1ccccc1C(=O)O [ASA, acetylsalicylic acid]
Effect on tightly protein-bound 14C in lung ([1]; high dose): reached a significant level | Effect on tightly protein-bound 14C in lung ([1]; low dose): tended to be higher | Effect of ASA on tightly protein-bound 14C in heart ([1]; low dose combination): significantly enhanced | Inhibition of PG I2 (6-keto PG F1alpha) / vascular cyclooxygenase (vascular cyclooxygenase): inhibited PG I2

Change of 14C distribution in plasma, skin, testis and brain ([2]; 14C-ASA 20 mg/kg with SAM 6 mg/kg vs 14C-ASA alone): significant increase | Change of 14C radioactivity and 14C-SA in plasma, liver and lung ([2]; SAM with 14C-ASA): discernable and parallel increase | Potentiation of ASA inhibitory effect on vascular cyclooxygenase (vascular cyclooxygenase; SAM with ASA, ex vivo): significant potentiation
SMILES: NC(=O)c1ccccc1O [SAM, Salicylamide]
Tissue with the highest 14C concentration ([2]; 1.5 hr): plasma attained the highest concentration | Change of 14C activity in stomach (gastric mucosa) ([2]; 1.5 hr, 14C-ASA/SAM 10/3 mg/kg vs 14C-ASA 10 mg/kg): lower concentration of ^14 C radioactivity | Inhibition of PG I2 (6-keto PG F1alpha) / vascular cyclooxygenase (vascular cyclooxygenase): partially, but still significantly, block vascular cyclooxygenase activity

SMILES: CC(=O)Oc1ccccc1[14C](=O)O [^14 C-ASA]
14C radioactivity in RBCs [2, 3]: 4.2 ± 1.2 μg/gm tissue | 14C radioactivity in blood [2, 3]: 17.1 ± 3.1 μg/gm tissue | 14C radioactivity in bone [2, 3]: 2.7 ± 0.08 μg/gm tissue | 14C radioactivity in bone marrow [2, 3]: 0.24 ± 0.05 μg/50 mg of bone marrow | 14C radioactivity in brain [2, 3]: 1.5 ± 0.1 μg/gm tissue | 14C radioactivity in fat [2, 3]: 3.3 ± 0.1 μg/gm tissue | 14C radioactivity in heart [2, 3]: 5.6 ± 0.5 μg/gm tissue | 14C radioactivity in kidney [2, 3]: 15.1 ± 0.9 μg/gm tissue | 14C radioactivity in liver [2, 3]: 7.9 ± 0.9 μg/gm tissue | 14C radioactivity in lung [2, 3]: 7.3 ± 0.5 μg/gm tissue | 14C radioactivity in muscle [2, 3]: 3.5 ± 0.2 μg/gm tissue | 14C radioactivity in pancreas [2, 3]: 5.7 ± 0.4 μg/gm tissue | 14C radioactivity in plasma [2, 3]: 35.5 ± 1.7 μg/gm tissue | 14C radioactivity in skin [2, 3]: 8.9 ± 0.4 μg/gm tissue | 14C radioactivity in spleen [2, 3]: 2.9 ± 0.6 μg/gm tissue | 14C radioactivity in stomach [2, 3]: 18.9 ± 3.3 μg/gm tissue | 14C radioactivity in testis [2, 3]: 5.1 ± 0.5 μg/gm tissue | 14C radioactivity in upper small intestine [2, 3]: 5.8 ± 0.6 μg/gm tissue | 14C radioactivity in washed RBCs [2, 3]: 1.5 ± 0.5 μg/gm tissue | 14C radioactivity in RBCs [2, 4]: 8.8 ± 1.2 μgm/gm tissue | 14C radioactivity in blood [2, 4]: 36.1 ± 3.5 μgm/gm tissue | 14C radioactivity in bone [2, 4]: 7.1 ± 0.6 μgm/gm tissue | 14C radioactivity in bone marrow [2, 4]: 0.79 ± 0.03 μgm/50 mg bone marrow | 14C radioactivity in brain [2, 4]: 4.1 ± 0.07 μgm/gm tissue | 14C radioactivity in fat [2, 4]: 4.5 ± 0.3 μgm/gm tissue | 14C radioactivity in heart [2, 4]: 17.5 ± 0.5 μgm/gm tissue | 14C radioactivity in kidney [2, 4]: 32.0 ± 3.2 μgm/gm tissue | 14C radioactivity in liver [2, 4]: 19.7 ± 0.9 μgm/gm tissue | 14C radioactivity in lung [2, 4]: 19.3 ± 0.7 μgm/gm tissue | 14C radioactivity in muscle [2, 4]: 9.5 ± 0.4 μgm/gm tissue | 14C radioactivity in pancreas [2, 4]: 12.6 ± 0.5 μgm/gm tissue | 14C radioactivity in plasma [2, 4]: 65.1 ± 1.91 μgm/gm tissue | 14C radioactivity in skin [2, 4]: 21.9 ± 0.6 μgm/gm tissue | 14C radioactivity in spleen [2, 4]: 10.0 ± 0.9 μgm/gm tissue | 14C radioactivity in stomach [2, 4]: 22.9 ± 4.6 μgm/gm tissue | 14C radioactivity in testis [2, 4]: 14.1 ± 0.6 μgm/gm tissue | 14C radioactivity in upper small intestine [2, 4]: 15.1 ± 1.0 μgm/gm tissue | 14C radioactivity in washed RBCs [2, 4]: 3.8 ± 0.9 μgm/gm tissue | Tissue with the highest 14C concentration ([2]; 1.5 hr): plasma attained the highest concentration

Tightly protein-bound 14C in heart [1, 5]: 20.6 ± 1.7 ng ^14 C/gm tissue | Tightly protein-bound 14C in kidney [1, 5]: 669.0 ± 45.1 ng ^14 C/gm tissue | Tightly protein-bound 14C in liver [1, 5]: 24.2 ± 4.0 ng ^14 C/gm tissue | Tightly protein-bound 14C in lung [1, 5]: 43.1 ± 6.1 ng ^14 C/gm tissue | Tightly protein-bound 14C in plasma [1, 5]: 57.8 ± 3.0 ng ^14 C/ml plasma | Tightly protein-bound 14C in heart [1, 6]: 87.7 ± 11.0 ng ^14 C/gm tissue | Tightly protein-bound 14C in kidney [1, 6]: 1104.5 ± 212.6 ng ^14 C/gm tissue | Tightly protein-bound 14C in liver [1, 6]: 72.6 ± 10.7 ng ^14 C/gm tissue | Tightly protein-bound 14C in lung [1, 6]: 134.8 ± 20.7 ng ^14 C/gm tissue | Tightly protein-bound 14C in plasma [1, 6]: 154.6 ± 29.8 ng ^14 C/ml plasma
SMILES: N[14C](=O)c1ccccc1O [^14 C-SAM]
